In patent US5925668A, “Thioctic metabolites and methods of use thereof” (priority 1998, dated 1999):

Tests used:
[1] = Plasma pharmacokinetics and metabolism of lipoic acid after oral administration of 1 gram R-lipoic acid to a healthy volunteer (HPLC/ECD); assay type: in vivo, human
Protocol: The HPLC system consisted of a pump (thermo separation products, Spectra SERLES P100,Breda, the Netherlands), an auto-injector (Gilson, Meyvis, model 232 XL, Bergen op Zoom, the Netherlands) with a […] sample loop and a dilutor (Gilson, Meyvis, model 401 C, Bergen op Zoom, the Netherlands). The system was equipped with an electrochemical detector (Coulochem ESA, model 5100 A, Interscience, Breda, the Netherlands) and an analytical cell (ESA, model 5010). Interscience, Breda, the Netherlands) which consisted of two cell compartments.
The separations were performed using a Hypersil C 18 column (125 mm×4.6 mm i.d., […] particle size) and a mobile phase of phosphate buffer (50 mM KH2 PO4 /H3 PO4, pH 2.7) and acetonitrile (65:35, v/v). Before use, the eluent was vacuum filtrated over a […] filter. The flow rate was 0.7 ml/min.
Sample Collection and Preparation
(§1) To a healthy volunteer (82 kg), who fasted overnight, 1 gram of R-lipoic acid (4 capsules of 250 mg) was administered orally. At several time points (0-5 hr), blood samples of 3 ml were taken from a venous cannula into Li-heparine containing tubes. The samples were centrifuged (2000 g at 4° C. for 5 min) and the plasma was analyzed immediately. The proteins in the plasma were precipitated by adding 1 ml ethanol and […] 85% (g/g) H3 PO4 to […] plasma. Thereafter, the sample was thoroughly mixed on a vortex mixer and placed on ice. After 15 min it was centrifuged at 2000 g for 10 min at 4° C. […] of the supernatant were brought onto the column. Quality control samples were prepared by spiking plasma with a small volume (less than 1%) of an ethanol solution of the compound.
For the elucidation of the structure of the metabolites, the plasma obtained at 69, 92 and 119 min was pooled (approximate total volume was 3 ml). The pooled plasma was acidified with 3 ml 3 M sulfuric acid. Thereafter, the sample was extracted twice with 12 ml HPLC-grade ethylacetate (Baker Phillipsburg, N.J.). After evaporation of the ethylacetate the compounds were methylated with diazomethane for 30 min at room temperature. Subsequently, the compounds were dissolved in […] ethanol. A volume of […] was injected on a GC/MS system using a split injection ratio of 1/15. The instrument used was a HP 5890 GC equipped with a HP 5970 mass selective detector. Gas chromatography was performed on a CPSil 5 CB WCOT capillary column (25 m, […] i.d., […]; Chrompack, Middelburg, the Netherlands). While the temperature of the injector and transfer line were kept at 250° C., two oven temperature programs were required to obtain satisfactory separation of all lipoic acid related components from endogenous plasma components. The oven temperature was programmed from 60° C. (kept for 2 min) to 180° C. (at 20° C./min) with an isothermal period (10 min) and subsequent temperature increase to 288° C. (at 20° C./min) and another isothermal period; this produced satisfactory results for all components except bisnorlipoic acid. Bisnorlipoic acid could be separated from background components by using a program from 60° C. (kept for 2 min) to 160° C. (at 20° C./min with an isothermal period (15 min) and subsequent raise to 288° C. (at 20° C./min). Detection was performed by using 70 eV impact ionization.
The Pharmocokinetic Analysis
A volunteer was given 1 gram R-lipoic acid. […] Somewhat later, an unknown metabolite was observed which eluted at 5.5 min (peak nr. 6 in FIG. 2). Thereafter, a second unknown appeared which eluted at 4.7 min (peak nr. 5 in FIG. 2). Subsequently, ca. 45 after administration, bisnorlipoic acid could be detected (peak nr. 4 in FIG. 2). […] The time course of the plasma concentrations of lipoic acid, the two unknown metabolites and bisnorlipoic acid are shown in FIG. 3. Around 45 min a maximum in the lipoic acid concentration is reached. At 75 min a diet containing a high amount of fat was consumed. […]

[2] = Stability in aqueous solutions; assay type: physicochemical; conditions: compared to plasma
human cells in culture = conditions: cited from earlier work
human erythrocytes = conditions: cited from earlier work
[3] = assay type: in vitro ADME
Protocol: as §1
The stability of lipoic acid in plasma was evaluated by spiking plasma at 0.5 mg/ml and storing it at -25° C. […]
The stability of dihydrolipoic acid in plasma was also evaluated by spiking plasma at 0.5 mg/ml and storing it at -25° C. After approximately 20 hours, ca. 6% of the theoretical value was detected. […] Lipoic acid was also detected in the quality control samples of dihydrolipoic acid used for determination of the accuracy and precision. […] This means that the sample is immediately analyzed after blood sampling, and the pH is reduced to increase the stability of thiols. […]

O=C(O)CC(=O)CCC1CCSS1 (centres unmarked) [3-ketolipoic acid]
order of reaching maximal plasma level ([1]; human, in vivo, po): reaches its maximum plasma level just before bisnorlipoic acid reaches its maximum
time of maximum plasma concentration ([1]; human, in vivo, po): 119 min

O=C(O)CCC1CCSS1 (centres unmarked) [bisnorlipoic acid]
time of first detection in plasma ([1]; human, in vivo, po): ca. 45
time of maximum plasma concentration ([1]; human, in vivo, po): 189 min

O=C(O)C1CCSS1 (centres unmarked) [tetranorlipoic acid]
detection in plasma after administration ([1]; human, in vivo, po): Neither dihydrolipoic acid nor tetranorlipoic acid were found

O=C(O)CCCC[C@@H](S)CCS (racemic) [dihydrolipoic acid]
stability in aqueous solutions [2]: more stable

O=C(O)CC(O)CCC1CCSS1 (centres unmarked) [3-hydroxylipoic acid]
order of reaching maximal plasma level ([1]; human, in vivo, po): reaches its maximal level before the compound from peak 6 reaches maximum

O=C(O)CCCC[C@@H]1CCSS1 (racemic) [lipoic acid, 1,2-dithiolane-3-pentanoic acid]
free plasma concentration before administration ([1]; human, in vivo): < 0.0078 µg/mL
Cmax ([1]; human, in vivo, po): 1.15 µg/mL
half life ([1]; human, in vivo, po): 0.933 h
time of first appearance in plasma ([1]; human, in vivo, po): 30 min
half-life ([1]; human, in vivo, po, half life): ~1 h
Tmax ([1]; human, in vivo, po, time of (first) maximum in plasma concentration): ~0.75 h
Tmax ([1]; human, in vivo, po, time of maximum plasma concentration): 1.53 h
elimination kinetics ([1]; oral 1 gram R-lipoic acid): first order kinetics
presence in plasma after three hours ([1]; oral 1 gram R-lipoic acid): essentially absent from the plasma
time of first appearance in plasma ([1]; oral 1 gram R-lipoic acid): Thirty minutes
reduction of lipoic acid into dihydrolipoic acid (human cells in culture): reduction of lipoic acid was shown
reduction of lipoic acid into dihydrolipoic acid (human erythrocytes): reduction of lipoic acid was shown
stability in plasma [3]: stable in plasma for at least one week
